The results in this text go back to patent publication US9309250B2, “Substituted pyrrolo[2,3-b]pyrazines as ATR kinase inhibitors” (Vertex Pharmaceuticals Incorporated, priority 2011, dated 2016).

This experiment addresses T1, full-length ATR (Homo sapiens, UniProt Q13535).
T1 construct: Assays were carried out at 25° C. in the presence of 5 nM full-length ATR
The experiment is described as follows: ATR Inhibition Assay (radioactive-phosphate incorporation). In kind it is biochemical. The note with it: Ki(app), 5 nM full-length ATR, 10 μM ATP, 25° C. The method, then:
Compounds were screened for their ability to inhibit ATR kinase using a radioactive-phosphate incorporation assay. Assays were carried out in a mixture of 50 mM Tris/HCl (pH 7.5), 10 mM MgCl2 and 1 mM DTT. Final substrate concentrations were 10 μM [γ-33P]ATP (3mCi 33P ATP/mmol ATP, Perkin Elmer) and 800 μM target peptide (ASELPASQPQPFSAKKK) (SEQ. ID. NO: 1).
Assays were carried out at 25° C. in the presence of 5 nM full-length ATR. An assay stock buffer solution was prepared containing all of the reagents listed above, with the exception of ATP and the test compound of interest. 13.5 μL of the stock solution was placed in a 96 well plate followed by addition of 2 μL of DMSO stock containing serial dilutions of the test compound (typically starting from a final concentration of 15 μM with 3-fold serial dilutions) in duplicate (final DMSO concentration 7%). The plate was pre-incubated for 10 minutes at 25° C. and the reaction initiated by addition of 15 μL [γ-33P]ATP (final concentration 10 μM).
The reaction was stopped after […] by the addition of 30 μL 0.1M phosphoric acid containing 2 mM ATP. A multiscreen phosphocellulose filter 96-well plate (Millipore, Cat no. MAPHN0B50) was pretreated with 100 μL 0.2M phosphoric acid prior to the addition of 45 μL of the stopped assay mixture. The plate was washed with 5×200 μL 0.2M phosphoric acid. After drying, 100 μL Optiphase ‘SuperMix’ liquid scintillation cocktail (Perkin Elmer) was added to the well prior to scintillation counting (1450 Microbeta Liquid Scintillation Counter, Wallac).
After removing mean background values for all of the data points, Ki(app) data were calculated from non-linear regression analysis of the initial rate data using the Prism software package (GraphPad Prism version 3.0cx for Macintosh, GraphPad Software, San Diego Calif., USA).
Below is a chart showing the ATR Inhibition Ki values of compounds of the disclosure.

T1 sequence (Q13535 whole entry): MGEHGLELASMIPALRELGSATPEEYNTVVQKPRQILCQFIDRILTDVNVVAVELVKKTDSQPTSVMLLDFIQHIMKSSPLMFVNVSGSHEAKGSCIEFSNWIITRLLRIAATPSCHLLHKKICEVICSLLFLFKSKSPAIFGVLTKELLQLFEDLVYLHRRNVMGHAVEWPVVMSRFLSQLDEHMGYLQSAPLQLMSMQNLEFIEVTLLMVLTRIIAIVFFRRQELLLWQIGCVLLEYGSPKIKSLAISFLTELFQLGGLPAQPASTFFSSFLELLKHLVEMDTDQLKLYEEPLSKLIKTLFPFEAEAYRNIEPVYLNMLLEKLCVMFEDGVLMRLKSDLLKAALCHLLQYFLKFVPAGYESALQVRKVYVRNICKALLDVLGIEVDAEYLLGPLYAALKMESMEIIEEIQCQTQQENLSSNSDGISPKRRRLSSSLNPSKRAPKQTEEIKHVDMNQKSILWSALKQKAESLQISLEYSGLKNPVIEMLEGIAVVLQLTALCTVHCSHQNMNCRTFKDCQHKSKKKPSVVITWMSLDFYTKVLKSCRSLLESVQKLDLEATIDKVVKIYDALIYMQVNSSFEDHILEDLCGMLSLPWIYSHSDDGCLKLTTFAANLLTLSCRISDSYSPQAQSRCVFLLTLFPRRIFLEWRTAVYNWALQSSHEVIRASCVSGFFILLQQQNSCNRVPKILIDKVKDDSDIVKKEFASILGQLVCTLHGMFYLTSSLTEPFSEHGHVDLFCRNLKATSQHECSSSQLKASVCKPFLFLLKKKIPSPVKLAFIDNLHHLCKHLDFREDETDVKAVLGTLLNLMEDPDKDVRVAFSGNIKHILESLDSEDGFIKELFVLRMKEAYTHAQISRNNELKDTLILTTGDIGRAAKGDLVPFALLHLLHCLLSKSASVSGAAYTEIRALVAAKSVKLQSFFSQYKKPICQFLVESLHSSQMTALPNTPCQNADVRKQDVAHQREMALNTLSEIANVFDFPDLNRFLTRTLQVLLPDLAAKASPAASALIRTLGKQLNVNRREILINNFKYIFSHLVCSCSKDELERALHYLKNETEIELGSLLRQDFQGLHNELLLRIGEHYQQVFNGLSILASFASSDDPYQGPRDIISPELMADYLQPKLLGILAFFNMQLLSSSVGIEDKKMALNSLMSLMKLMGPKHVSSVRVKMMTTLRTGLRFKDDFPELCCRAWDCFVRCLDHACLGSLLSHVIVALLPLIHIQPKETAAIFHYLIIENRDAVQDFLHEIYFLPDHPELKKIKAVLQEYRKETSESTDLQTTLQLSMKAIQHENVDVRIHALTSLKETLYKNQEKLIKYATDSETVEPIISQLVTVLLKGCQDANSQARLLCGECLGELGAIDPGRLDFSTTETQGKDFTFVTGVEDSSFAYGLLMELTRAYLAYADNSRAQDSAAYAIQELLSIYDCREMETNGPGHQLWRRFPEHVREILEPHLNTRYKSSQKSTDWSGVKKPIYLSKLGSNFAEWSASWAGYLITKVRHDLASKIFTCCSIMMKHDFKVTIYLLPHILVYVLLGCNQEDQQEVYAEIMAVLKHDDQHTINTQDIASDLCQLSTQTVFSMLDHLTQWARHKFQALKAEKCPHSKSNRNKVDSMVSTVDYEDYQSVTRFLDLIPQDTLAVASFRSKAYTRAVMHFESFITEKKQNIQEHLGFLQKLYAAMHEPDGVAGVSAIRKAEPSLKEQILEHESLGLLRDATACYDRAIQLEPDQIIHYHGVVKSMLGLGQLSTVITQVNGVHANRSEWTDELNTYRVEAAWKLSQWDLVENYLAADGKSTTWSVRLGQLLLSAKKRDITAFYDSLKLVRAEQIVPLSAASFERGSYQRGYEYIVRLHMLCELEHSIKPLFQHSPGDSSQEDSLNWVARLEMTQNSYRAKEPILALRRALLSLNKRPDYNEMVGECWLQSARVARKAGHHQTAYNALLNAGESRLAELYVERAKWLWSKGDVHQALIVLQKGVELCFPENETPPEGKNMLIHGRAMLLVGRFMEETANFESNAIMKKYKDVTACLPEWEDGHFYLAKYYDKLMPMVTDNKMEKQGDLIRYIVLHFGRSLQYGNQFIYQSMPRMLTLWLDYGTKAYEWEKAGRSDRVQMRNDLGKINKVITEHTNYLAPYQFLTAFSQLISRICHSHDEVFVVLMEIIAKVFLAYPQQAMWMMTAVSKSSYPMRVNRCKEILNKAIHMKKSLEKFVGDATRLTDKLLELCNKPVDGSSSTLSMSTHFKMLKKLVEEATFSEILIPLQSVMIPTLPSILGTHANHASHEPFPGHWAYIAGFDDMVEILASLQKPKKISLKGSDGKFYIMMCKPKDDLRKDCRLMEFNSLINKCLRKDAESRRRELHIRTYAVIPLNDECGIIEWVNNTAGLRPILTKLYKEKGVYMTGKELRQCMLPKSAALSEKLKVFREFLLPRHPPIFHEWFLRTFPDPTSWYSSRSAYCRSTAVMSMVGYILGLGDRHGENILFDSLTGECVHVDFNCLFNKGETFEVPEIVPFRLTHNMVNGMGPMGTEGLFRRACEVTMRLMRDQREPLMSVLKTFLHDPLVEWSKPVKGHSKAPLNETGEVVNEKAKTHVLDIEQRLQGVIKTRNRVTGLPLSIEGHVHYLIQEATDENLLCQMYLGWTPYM

In the case of `CN(C)C(=O)c1ccc(-c2cnc3[nH]cc(N4Cc5ccccc5C4=O)c3n2)cc1` [Compound I-4, N,N-dimethyl-4-(7-(1-oxoisoindolin-2-yl)-5H-pyrrolo[2,3-b]pyrazin-2-yl)benzamide], the Ki (800 μM target peptide) is 50 to 100 nM.

Take `CC(C)S(=O)(=O)c1ccc(-c2cnc3[nH]cc(N4C(=O)c5ccccc5C4CCO)c3n2)cc1` (stereo not shown) [Compound I-48, 3-(2-hydroxyethyl)-2-(2-(4-(isopropylsulfonyl)phenyl)-5H-pyrrolo[2,3-b]pyrazin-7-yl)isoindolin-1-one]: the Ki (800 μM target peptide) is no more than 50 nM.

As for `CC(C)S(=O)(=O)c1ccc(-c2cnc3[nH]cc(N4Cc5cccc([N+](=O)[O-])c5C4=O)c3n2)cc1` [Compound I-14, 2-(2-(4-(isopropylsulfonyl)phenyl)-5H-pyrrolo[2,3-b]pyrazin-7-yl)-7-nitroisoindolin-1-one], the Ki (800 μM target peptide) was no more than 50 nM.

Take `CC(C)S(=O)(=O)c1ccc(-c2cnc3[nH]cc(N4Cc5cc(OCCN(C)C)ccc5C4=O)c3n2)cc1` [Compound I-47, 5-(2-(dimethylamino)ethoxy)-2-(2-(4-(isopropylsulfonyl)phenyl)-5H-pyrrolo[2,3-b]pyrazin-7-yl)isoindolin-1-one]: the Ki (800 μM target peptide) is no more than 50 nM.

As for `CC(C)S(=O)(=O)c1ccc(-c2cnc3[nH]cc(N4Cc5ccc(CN)cc5C4=O)c3n2)cc1` [Compound I-20, 6-(aminomethyl)-2-(2-(4-(isopropylsulfonyl)phenyl)-5H-pyrrolo[2,3-b]pyrazin-7-yl)isoindolin-1-one], the Ki (800 μM target peptide) is no more than 50 nM.

With `CC(C)S(=O)(=O)c1ccc(-c2cnc3[nH]cc(N4Cc5ccc(N6CC[C@H](N)C6)cc5C4=O)c3n2)cc1` [Compound I-27, (S)-6-(3-aminopyrrolidin-1-yl)-2-(2-(4-(isopropylsulfonyl)phenyl)-5H-pyrrolo[2,3-b]pyrazin-7-yl)isoindolin-1-one], under “800 μM target peptide”, the Ki is no more than 50 nM.

Take `CC(C)S(=O)(=O)c1ccc(-c2cnc3[nH]cc(N4Cc5cccc(C#N)c5C4=O)c3n2)cc1` [Compound I-18, 2-(2-(4-(isopropylsulfonyl)phenyl)-5H-pyrrolo[2,3-b]pyrazin-7-yl)-3-oxoisoindoline-4-carbonitrile]: under “800 μM target peptide”, the Ki is no more than 50 nM.

Consider `CC(C)S(=O)(=O)c1ccc(-c2cnc3[nH]cc(N4Cc5c(C#N)cccc5C4=O)c3n2)cc1` [Compound I-16, 2-(2-(4-(isopropylsulfonyl)phenyl)-5H-pyrrolo[2,3-b]pyrazin-7-yl)-1-oxoisoindoline-4-carbonitrile], for which the Ki (800 μM target peptide) is 50 to 100 nM.

On to `O=C1c2c(Cl)cccc2CN1c1c[nH]c2ncc(-c3ccc(S(=O)(=O)C4CCNCC4)cc3)nc12` [Compound I-23, 7-chloro-2-(2-(4-(piperidin-4-ylsulfonyl)phenyl)-5H-pyrrolo[2,3-b]pyrazin-7-yl)isoindolin-1-one], for which, where the note is “800 μM target peptide”, the Ki is no more than 50 nM.

For the compound `CC(C)S(=O)(=O)c1ccc(-c2cnc3[nH]cc(N4Cc5cc(NCCN6CCOCC6)ccc5C4=O)c3n2)cc1` [Compound I-32, 2-(2-(4-(isopropylsulfonyl)phenyl)-5H-pyrrolo[2,3-b]pyrazin-7-yl)-5-((2-morpholinoethyl)amino)isoindolin-1-one], under “800 μM target peptide”, the Ki was no more than 50 nM.

As for `O=C1c2ccccc2CN1c1c[nH]c2ncc(-c3ccc(S(=O)(=O)C4CCCNC4)cc3)nc12` (stereo not shown) [Compound I-8, 2-(2-(4-(piperidin-3-ylsulfonyl)phenyl)-5H-pyrrolo[2,3-b]pyrazin-7-yl)isoindolin-1-one], the Ki (800 μM target peptide) was no more than 50 nM.

As for `CC(C)S(=O)(=O)c1ccc(-c2cnc3[nH]cc(N4Cc5ccc(OCCN(C)C)cc5C4=O)c3n2)cc1` [Compound I-46, 6-(2-(dimethylamino)ethoxy)-2-(2-(4-(isopropylsulfonyl)phenyl)-5H-pyrrolo[2,3-b]pyrazin-7-yl)isoindolin-1-one], the Ki (800 μM target peptide) is no more than 50 nM.

Take `CC(C)S(=O)(=O)c1ccc(-c2cnc3[nH]cc(N4Cc5cccc(N)c5C4=O)c3n2)cc1` [Compound I-21, 7-amino-2-(2-(4-(isopropylsulfonyl)phenyl)-5H-pyrrolo[2,3-b]pyrazin-7-yl)isoindolin-1-one]: the Ki (800 μM target peptide) is no more than 50 nM.

Regarding `CC(C)S(=O)(=O)c1ccc(-c2cnc3[nH]cc(N4Cc5cc(CN)ccc5C4=O)c3n2)cc1` [Compound I-15, 5-(aminomethyl)-2-(2-(4-(isopropylsulfonyl)phenyl)-5H-pyrrolo[2,3-b]pyrazin-7-yl)isoindolin-1-one], where the note is “800 μM target peptide”, the Ki fell in the range of 100 to 250 nM.

As to `CC(C)S(=O)(=O)c1ccc(-c2cnc3[nH]cc(N4Cc5cc(N6CCC(CN)CC6)ccc5C4=O)c3n2)cc1` [Compound I-33, 5-(4-(aminomethyl)piperidin-1-yl)-2-(2-(4-(isopropylsulfonyl)phenyl)-5H-pyrrolo[2,3-b]pyrazin-7-yl)isoindolin-1-one], the Ki (800 μM target peptide) lay in the range of 50 to 100 nM.

For the compound `CC(C)S(=O)(=O)c1ccc(-c2cnc3[nH]cc(N4Cc5ccc(C#N)cc5C4=O)c3n2)cc1` [Compound I-13, 2-(2-(4-(isopropylsulfonyl)phenyl)-5H-pyrrolo[2,3-b]pyrazin-7-yl)-3-oxoisoindoline-5-carbonitrile], for the setting “numeric bound printed among class symbols”, the Ki is greater than 4000 nM.

For `CC(C)S(=O)(=O)c1ccc(-c2cnc3[nH]cc(N4Cc5c(Cl)cccc5C4=O)c3n2)cc1` [Compound I-11, 4-chloro-2-(2-(4-(isopropylsulfonyl)phenyl)-5H-pyrrolo[2,3-b]pyrazin-7-yl)isoindolin-1-one], for the setting “800 μM target peptide”, the Ki was in the range of 50 to 100 nM.

With `CC(C)S(=O)(=O)c1ccc(-c2cnc3[nH]cc(N4Cc5cc(Br)ccc5C4=O)c3n2)cc1` [Compound I-9, 5-bromo-2-(2-(4-(isopropylsulfonyl)phenyl)-5H-pyrrolo[2,3-b]pyrazin-7-yl)isoindolin-1-one], under “800 μM target peptide”, the Ki was in the range of 50 to 100 nM.

In the case of `CC(C)S(=O)(=O)c1ccc(-c2cnc3[nH]cc(N4Cc5ccc(NCCN(C)C)cc5C4=O)c3n2)cc1` [Compound I-26, 6-((2-(dimethylamino)ethyl)amino)-2-(2-(4-(isopropylsulfonyl)phenyl)-5H-pyrrolo[2,3-b]pyrazin-7-yl)isoindolin-1-one], the Ki (800 μM target peptide) was no more than 50 nM.
